According to patent publication US6787356B1, “Cell expansion system for use in neural transplantation” (The United States of America as represented by the …, priority 1998, dated 2004):

Test system: ventral mesencephalon cells of E12 rat embryos
Test: Tissue culture expansion of mesencephalic precursors with bFGF
Assay type: cell-based
Conditions: from 800×10^3 cells; 10-20 ng bFGF/ml medium daily; N=12
Protocol: Tissue was obtained from the ventral mesencephalon of E12 rat embryos (Sprague Dawley, plug day=day 0,) as described by Studer et al. in Current Protocols in Neuroscience (eds McKay, R. D. & Gerfen, C. R.) John Wiley & Sons Inc., New York, (1997).
Tissue pieces were spun in a centrifuge at 209 g for 5 minutes and mechanically triturated to a quasi single cell suspension in HBSS and counted. 5 ml of cell suspension at a concentration of 150-200×10^3 cells/ml was plated on a 10 cm culture dish containing DMEM/F12/N2 medium (Bottenstein, J. E. & Sato, G. H. Growth of a rat neuroblastoma cell line in serum-free supplemented medium. Proc.Natl.Acad.Sci.USA 76, 514-517 (1979) (modified according to Johe, K. K., Hazel, T. G., Müller, T., Dugich-Djordjevic, M. M. & McKay, R. D. G. Single factors direct the differentiation of stem cells from the fetal and adult central nervous system. Genes and Development 10, 3129-3140 (1996)) that had been previously coated with polyornithine (15 ug/ml) and fibronectin (1 ug/ml).
bFGF was added to the culture medium on a daily basis to a final concentration of 10-20 ng bFGF/ml medium. The medium was changed every other day.
Additionally, after treatment with bFGF all surviving cells were immunoreactive for the nestin intermediate filament a marker for immature neuroepithelial precursors. […]

Substance: bFGF: basic fibroblast growth factor, added to proliferating medium to expand precursor cells
- cell number after 1 week of treatment with bFGF: 7,417×10^3+/−1,066×10^3 cells
